Experimental data from US20260060973A1, “Ophthalmic Composition for Treating Non-Infectious Inflammatory Diseases” (VIVAVISION BIOTECH LTD., priority 2023, published 2026).
“Also recorded” adds a separate entry of the source.

Columns and labels:
Janus kinase 1 (JAK1) = Janus kinase 1 (JAK1) (Homo sapiens, UniProt P23458); test: Mechanism of action of VVN461; assay type: biochemical
Excerpt: (§1) JAK- or TYK-dependent cytokines are associated with non-infectious inflammatory diseases (e.g., uveitis or other ocular diseases), which is a potential therapeutic target for immune-mediated uveitis. VVN461 can target both Janus kinase 1 (JAK1) and tyrosine kinase 2 (TYK2), target JAK/TYK-dependent cytokines, and inhibit Janus kinase (JAK)/signal transducer and activation of transcription (STAT) pathway, and thus can be used for the treatment of non-infectious inflammatory diseases such as uveitis. […] These phosphorylated receptor residues that act as binding sites for STAT proteins are activated by the phosphorylation of the JAKs, so that STAT proteins are dimerized and translocated to the nucleus of the cell, thereby bind to specific DNA sites and regulate gene expression, which in turn leads to inflammation. In contrast, VVN461 of the present application can target JAK/TYK-dependent cytokines and inhibit the JAK/STAT pathway, and thus can be used for the treatment of non-infectious inflammatory diseases such as uveitis.

tyrosine kinase 2 (TYK2) = tyrosine kinase 2 (TYK2) (Homo sapiens, UniProt P29597); test: Mechanism of action of VVN461; assay type: biochemical
Excerpt: as §1

Solubility in water = assay type: physicochemical

Sequence of tyrosine kinase 2 (TYK2) (P29597 whole entry, species assumed): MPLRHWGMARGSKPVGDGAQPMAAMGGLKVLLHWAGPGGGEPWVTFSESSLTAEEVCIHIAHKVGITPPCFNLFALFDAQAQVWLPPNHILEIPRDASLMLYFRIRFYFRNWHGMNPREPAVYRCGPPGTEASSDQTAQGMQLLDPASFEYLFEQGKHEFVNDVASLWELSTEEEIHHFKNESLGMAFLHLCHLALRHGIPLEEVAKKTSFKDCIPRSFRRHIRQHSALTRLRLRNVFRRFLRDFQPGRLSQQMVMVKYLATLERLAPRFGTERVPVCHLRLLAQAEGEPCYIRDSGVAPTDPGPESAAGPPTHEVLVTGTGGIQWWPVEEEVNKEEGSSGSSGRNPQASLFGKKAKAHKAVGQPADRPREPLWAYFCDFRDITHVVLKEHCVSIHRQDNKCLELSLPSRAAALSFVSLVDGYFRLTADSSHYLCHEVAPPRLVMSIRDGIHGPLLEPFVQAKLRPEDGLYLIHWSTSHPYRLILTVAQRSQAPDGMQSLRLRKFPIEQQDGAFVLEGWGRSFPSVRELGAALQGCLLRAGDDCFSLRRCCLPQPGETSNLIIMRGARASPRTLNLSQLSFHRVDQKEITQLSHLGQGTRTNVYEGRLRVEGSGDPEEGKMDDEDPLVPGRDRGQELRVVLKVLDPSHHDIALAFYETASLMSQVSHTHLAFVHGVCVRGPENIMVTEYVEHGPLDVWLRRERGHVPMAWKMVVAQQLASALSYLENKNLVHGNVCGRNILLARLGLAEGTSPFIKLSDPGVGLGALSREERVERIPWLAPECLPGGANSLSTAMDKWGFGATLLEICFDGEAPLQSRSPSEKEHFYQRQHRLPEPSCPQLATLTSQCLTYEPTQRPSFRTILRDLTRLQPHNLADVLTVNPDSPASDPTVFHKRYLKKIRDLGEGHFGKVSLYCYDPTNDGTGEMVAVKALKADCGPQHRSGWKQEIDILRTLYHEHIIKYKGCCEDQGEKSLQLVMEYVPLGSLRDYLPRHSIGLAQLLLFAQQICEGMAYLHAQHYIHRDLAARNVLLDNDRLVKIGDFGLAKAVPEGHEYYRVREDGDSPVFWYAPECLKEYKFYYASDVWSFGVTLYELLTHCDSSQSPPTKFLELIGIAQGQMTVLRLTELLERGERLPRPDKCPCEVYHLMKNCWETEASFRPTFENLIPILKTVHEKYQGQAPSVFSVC
Sequence of Janus kinase 1 (JAK1) (P23458 whole entry, species assumed): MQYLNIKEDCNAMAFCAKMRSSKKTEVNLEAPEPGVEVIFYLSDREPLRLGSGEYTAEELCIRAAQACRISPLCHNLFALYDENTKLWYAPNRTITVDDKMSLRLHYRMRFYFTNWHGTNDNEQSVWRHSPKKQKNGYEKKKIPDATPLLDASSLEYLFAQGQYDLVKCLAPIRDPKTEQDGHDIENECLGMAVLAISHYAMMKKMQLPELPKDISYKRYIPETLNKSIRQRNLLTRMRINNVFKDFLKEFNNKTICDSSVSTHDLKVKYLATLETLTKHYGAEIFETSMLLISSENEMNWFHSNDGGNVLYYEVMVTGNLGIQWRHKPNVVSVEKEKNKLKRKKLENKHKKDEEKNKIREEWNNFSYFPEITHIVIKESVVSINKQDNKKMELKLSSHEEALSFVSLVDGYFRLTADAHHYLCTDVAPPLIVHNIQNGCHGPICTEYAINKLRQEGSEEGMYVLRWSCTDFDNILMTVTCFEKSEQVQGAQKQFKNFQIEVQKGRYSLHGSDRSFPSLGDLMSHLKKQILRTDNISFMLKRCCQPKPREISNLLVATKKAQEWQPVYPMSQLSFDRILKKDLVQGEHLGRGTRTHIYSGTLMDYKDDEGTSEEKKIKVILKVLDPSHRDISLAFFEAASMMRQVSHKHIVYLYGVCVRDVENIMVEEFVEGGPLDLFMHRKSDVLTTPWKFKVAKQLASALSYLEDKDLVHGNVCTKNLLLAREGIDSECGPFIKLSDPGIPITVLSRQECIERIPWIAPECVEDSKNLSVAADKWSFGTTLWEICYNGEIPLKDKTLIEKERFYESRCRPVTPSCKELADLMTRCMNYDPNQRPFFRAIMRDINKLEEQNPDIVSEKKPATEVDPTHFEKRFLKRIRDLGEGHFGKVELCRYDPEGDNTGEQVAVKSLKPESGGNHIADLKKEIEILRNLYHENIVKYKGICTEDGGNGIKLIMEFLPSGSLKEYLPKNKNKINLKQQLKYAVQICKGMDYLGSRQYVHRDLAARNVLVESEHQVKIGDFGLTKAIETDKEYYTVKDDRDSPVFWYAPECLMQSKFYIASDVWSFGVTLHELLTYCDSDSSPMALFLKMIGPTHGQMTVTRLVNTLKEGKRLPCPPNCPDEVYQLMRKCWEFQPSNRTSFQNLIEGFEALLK

JAK1 inhibition (Janus kinase 1 (JAK1)): dual JAK1/TYK2 inhibitor
TYK2 inhibition (tyrosine kinase 2 (TYK2)): dual JAK1/TYK2 inhibitor
Structure (SMILES): C[C@@H](O)c1nc2cnc3[nH]ccc3c2n1N1CCC(CC#N)CC1 [VVN461, (R)-2-(1-(2-(1-hydroxyethyl)imidazo[4,5-d]pyrrolo[2,3-b]pyridin-1(6H)-yl)piperidin-4-yl)acetonitrile]
solubility (Solubility in water): practically insoluble in water; also recorded: low water solubilities
